Drawing on patent publication US9907800B2, “Kinase inhibitors and method of treating cancer” (University Health Network, priority 2010, dated 2018), this text covers IC50 for 24 molecules.

Type in all cases: biochemical
The target of one experiment is Aurora B (Homo sapiens (Human), UniProt Q96GD4). The experiment can be described thus: Aurora B inhibition assay (Z-Lyte). The settings on record: read-out: Aurora B IC50 Ranges.
For the next experiment, the target named is FLT3 (Homo sapiens (Human), UniProt P36888). The experiment can be described thus: FLT3 inhibition assay (Z-Lyte). The settings on record: read-out: Flt3 IC50 Ranges.
Sequence of FLT3 (P36888 27-993): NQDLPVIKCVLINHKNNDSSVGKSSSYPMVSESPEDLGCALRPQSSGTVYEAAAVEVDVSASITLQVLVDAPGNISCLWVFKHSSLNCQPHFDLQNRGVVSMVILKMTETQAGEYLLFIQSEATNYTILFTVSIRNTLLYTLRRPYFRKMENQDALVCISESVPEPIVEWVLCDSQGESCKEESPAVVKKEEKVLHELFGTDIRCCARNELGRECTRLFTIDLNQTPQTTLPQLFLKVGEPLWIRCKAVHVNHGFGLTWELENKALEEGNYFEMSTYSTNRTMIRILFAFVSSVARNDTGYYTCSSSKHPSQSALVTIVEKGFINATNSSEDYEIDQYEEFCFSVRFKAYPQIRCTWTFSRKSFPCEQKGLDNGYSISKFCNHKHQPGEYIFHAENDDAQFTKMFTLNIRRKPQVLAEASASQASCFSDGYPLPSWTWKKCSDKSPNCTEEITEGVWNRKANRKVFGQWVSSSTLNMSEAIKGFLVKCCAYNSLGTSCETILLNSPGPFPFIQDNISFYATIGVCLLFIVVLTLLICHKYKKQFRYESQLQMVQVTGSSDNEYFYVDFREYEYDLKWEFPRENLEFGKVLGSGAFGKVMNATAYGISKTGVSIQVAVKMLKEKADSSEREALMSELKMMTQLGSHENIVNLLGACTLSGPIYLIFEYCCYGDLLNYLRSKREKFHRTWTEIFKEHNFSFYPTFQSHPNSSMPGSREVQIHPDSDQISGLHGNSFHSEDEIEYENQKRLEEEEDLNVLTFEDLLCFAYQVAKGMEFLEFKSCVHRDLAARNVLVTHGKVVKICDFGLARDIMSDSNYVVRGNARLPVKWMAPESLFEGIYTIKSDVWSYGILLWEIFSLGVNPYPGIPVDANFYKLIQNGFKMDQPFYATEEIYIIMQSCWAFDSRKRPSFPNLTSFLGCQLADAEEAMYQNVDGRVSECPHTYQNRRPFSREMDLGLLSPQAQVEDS
The next experiment deals with human PLK4 (Homo sapiens (Human), UniProt O00444). Description: PLK4 inhibition assay (indirect ELISA). The settings on record: read-out: PLK4 IC50 Ranges.
Sequence of human PLK4 (O00444 1-391): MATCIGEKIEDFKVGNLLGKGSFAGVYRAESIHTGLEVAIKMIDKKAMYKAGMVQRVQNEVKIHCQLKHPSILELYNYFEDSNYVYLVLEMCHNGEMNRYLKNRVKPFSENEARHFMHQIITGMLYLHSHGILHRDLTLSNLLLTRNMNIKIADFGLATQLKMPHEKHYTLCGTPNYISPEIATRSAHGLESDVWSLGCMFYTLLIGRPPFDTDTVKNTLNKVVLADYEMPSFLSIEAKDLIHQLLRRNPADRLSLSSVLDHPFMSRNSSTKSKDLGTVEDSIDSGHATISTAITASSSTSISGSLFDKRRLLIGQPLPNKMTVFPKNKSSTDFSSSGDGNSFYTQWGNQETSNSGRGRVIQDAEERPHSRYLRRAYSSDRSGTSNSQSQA

A value given as a limit tells only on which side of the number the result lay.

Sequence of Aurora B (Q96GD4 whole entry): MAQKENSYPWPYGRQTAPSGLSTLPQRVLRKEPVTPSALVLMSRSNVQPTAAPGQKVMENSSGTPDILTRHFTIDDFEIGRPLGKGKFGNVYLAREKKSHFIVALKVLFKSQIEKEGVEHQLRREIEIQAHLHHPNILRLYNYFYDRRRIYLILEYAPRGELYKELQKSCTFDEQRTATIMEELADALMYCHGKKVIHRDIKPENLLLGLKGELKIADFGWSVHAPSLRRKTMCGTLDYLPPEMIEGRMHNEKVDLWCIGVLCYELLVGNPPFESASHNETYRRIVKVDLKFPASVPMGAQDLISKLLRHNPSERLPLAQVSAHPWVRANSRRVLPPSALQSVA
Method for Aurora B: Aurora B inhibition was determined using the Z-Lyte assay kit from Invitrogen. […] The % inhibition values were determined according to the manufacturer's directions and IC50 values were obtained using a non-linear 4 point logistic curve fit (XLfit4, IDBS)
Method for FLT3: The enzymatic activity of FLT3 was determined using the Z-Lyte assay kit from Invitrogen (Invitrogen cat #PV3191). […] The % inhibition values were determined according to the manufacturer's directions and IC50 values were obtained using a non-linear 4 point logistic curve fit (XLfit4, IDBS).
Method for human PLK4: PLK4 activity was measured using an indirect ELISA detection system. […] The colourimetric reaction was allowed to continue for 5 minutes, followed by addition of stop solution (0.5 N sulphuric acid), and quantified by detection at 450 nm with either a monochromatic or filter based plate reader (Molecular Devices M5 or Beckman DTX880, respectively).
Compounds were pre-incubated in the presence of enzyme for 15 minutes prior to addition of ATP and the activity remaining quantified using the above described activity assay. […] The IC50 value was determined using a non-linear 4 point logistic curve fit (XLfit4, IDBS) with the formula; (A+(B/(1+((x/C)^D)))), where A=background value, B=range, C=inflection point, D=curve fit parameter.

With `COc1ccc2c(c1)[C@]1(C[C@H]1c1ccc3c(-c4cccc(CN5CCCCC5)c4)n[nH]c3c1)C(=O)N2` (relative stereo) [Example A44, (1R*,2S*)-5′-methoxy-2-(3-(3-(piperidin-1-ylmethyl)phenyl)-1H-indazol-6-yl)spiro[cyclopropane-1,3′-indolin]-2′-one 2,2,2-trifluoroacetate], the half-inhibitory concentration (IC50) (commonly the point on the concentration scale where inhibition reaches its midpoint) was 100 to 1000 nM at Aurora B, over 1000 nM at FLT3 and under 100 nM at human PLK4.

Take `COc1ccc2c(c1)[C@]1(C[C@H]1c1ccc3c(-c4ccc(CO)cc4)n[nH]c3c1)C(=O)N2` (relative stereo) [Example A45, (1R*,2S*)-2-(3-(4-(hydroxymethyl)phenyl)-1H-indazol-6-yl)-5′-methoxyspiro[cyclopropane-1,3′-indolin]-2′-one 2,2,2-trifluoroacetate]: the IC50 is 100 to 1000 nM on Aurora B, over 1000 nM at FLT3 and under 100 nM at human PLK4.

Consider `COc1ccc2c(c1)[C@]1(C[C@H]1c1ccc3c(-c4cccc(N5CCNCC5)c4)n[nH]c3c1)C(=O)N2` (relative stereo) [Example A47, (1R*,2S*)-5′-methoxy-2-(3-(3-(piperazin-1-yl)phenyl)-1H-indazol-6-yl)spiro[cyclopropane-1,3′-indolin]-2′-one 2,2,2-trifluoroacetate], for which the IC50 is 100 to 1000 nM at Aurora B, over 1000 nM at FLT3 and under 100 nM on human PLK4.

With `CCc1ccc2c(c1)[C@]1(C[C@H]1c1ccc3c(-c4cccc(CN5CCOCC5)c4)n[nH]c3c1)C(=O)N2` (relative stereo) [Example A141, (1R*,2S*)-5′-ethyl-2-(3-(3-(morpholinomethyl)phenyl)-1H-indazol-6-yl)spiro[cyclopropane-1,3′-indolin]-2′-one 2,2,2-trifluoroacetate], the IC50 at Aurora B, on FLT3 and at human PLK4 was over 1000 nM throughout.

Consider `COc1ccc2c(c1)[C@]1(C[C@H]1c1ccc3c(-c4ccc(N5CCN(C(C)C)CC5)cc4)n[nH]c3c1)C(=O)N2` [Example A97, (1R,2S)-2-(3-(4-(4-isopropylpiperazin-1-yl)phenyl)-1H-indazol-6-yl)-5′-methoxyspiro[cyclopropane-1,3′-indolin]-2′-one 2,2,2-trifluoroacetate], for which the IC50 on FLT3 was under 100 nM.

With `COc1ccc2c(c1)[C@]1(C[C@H]1c1ccc3c(-c4ccc(N5CC[C@H](N(C)C)C5)cc4)n[nH]c3c1)C(=O)N2` [Example A128, (1R,2S)-2-(3-(4-((S)-3-(dimethylamino)pyrrolidin-1-yl)phenyl)-1H-indazol-6-yl)-5′-methoxyspiro[cyclopropane-1,3′-indolin]-2′-one 2,2,2-trifluoroacetate], the IC50 on FLT3 was 100 to 1000 nM; on human PLK4 it was under 100 nM.

On to `COc1ccc2c(c1)[C@]1(C[C@H]1c1ccc3c(/C=C/c4cccc(CN5CCOCC5)c4)n[nH]c3c1)C(=O)N2` [Example A132, (1R,2S)-5′-methoxy-2-(3-(3-(morpholinomethyl)styryl)-1H-indazol-6-yl)spiro[cyclopropane-1,3′-indolin]-2′-one 2,2,2-trifluoroacetate], for which the IC50 at FLT3 is under 100 nM.

Regarding `COc1ccc2c(c1)[C@]1(C[C@H]1c1ccc3c(/C=C/c4cccc(CN(C)C)c4)n[nH]c3c1)C(=O)N2` [Example A134, (1R,2S)-2-(3-(3-((dimethylamino)methyl)styryl)-1H-indazol-6-yl)-5′-methoxyspiro[cyclopropane-1,3′-indolin]-2′-one 2,2,2-trifluoroacetate], on FLT3, the IC50 is under 100 nM.

`COc1ccc2c(c1)[C@]1(C[C@H]1c1ccc3c(/C=C/c4ccc(CN5C[C@@H](C)O[C@@H](C)C5)cc4)n[nH]c3c1)C(=O)N2` [Example A185]: the IC50 at FLT3 was in the range of 100 to 1000 nM.

On to `CCN1CCN(c2ccc(/C=C/c3n[nH]c4cc([C@@H]5C[C@@]56C(=O)Nc5ccc(OC)cc56)ccc34)cc2)CC1` [Example A187, (1R,2S)-(E)-2-(3-(4-(4-ethylpiperazin-1-yl)styryl)-1H-indazol-6-yl)-5′-methoxyspiro[cyclopropane-1,3′-indolin]-2′-one 2,2,2-trifluoroacetate], for which the IC50 at Aurora B and at human PLK4 was under 100 nM in each case.

With `COc1ccc2c(c1)[C@]1(C[C@H]1c1ccc3c(-c4ccc(N5CCN(CCO)CC5)cc4)n[nH]c3c1)C(=O)N2` [Example A191, (1R,2S)-2-(3-(4-(4-(2-hydroxyethyl)piperazin-1-yl)phenyl)-1H-indazol-6-yl)-5′-methoxyspiro[cyclopropane-1,3′-indolin]-2′-one 2,2,2-trifluoroacetate], the IC50 on Aurora B and at human PLK4 was under 100 nM in each case.

Consider `COc1ccc2c(c1)[C@]1(C[C@H]1c1ccc3c(-c4ccc(N5CCN(C6CCCCC6)CC5)cc4)n[nH]c3c1)C(=O)N2` [Example A193, (1R,2S)-2-(3-(4-(4-cyclohexylpiperazin-1-yl)phenyl)-1H-indazol-6-yl)-5′-methoxyspiro[cyclopropane-1,3′-indolin]-2′-one 2,2,2-trifluoroacetate], for which the IC50 on Aurora B and at human PLK4 was under 100 nM each time.

Regarding `COc1ccc2c(c1)[C@]1(C[C@H]1c1ccc3c(/C=C/c4ccc(OCCN5CCOCC5)cc4)n[nH]c3c1)C(=O)N2` [Example A194, (1R,2S)-(E)-5′-methoxy-2-(3-(4-(2-morpholinoethoxy)styryl)-1H-indazol-6-yl)spiro[cyclopropane-1,3′-indolin]-2′-one 2,2,2-trifluoroacetate], the IC50 on Aurora B and on human PLK4 was under 100 nM in each case.

Take `COc1ccc2c(c1)[C@]1(C[C@H]1c1ccc3c(/C=C/c4cccnc4)n[nH]c3c1)C(=O)N2` [Example A197, (1R,2S)-5′-methoxy-2-(3-((E)-2-(pyridin-3-yl)vinyl)-1H-indazol-6-yl)spiro[cyclopropane-1,3′-indolin]-2′-one]: the IC50 on Aurora B and on human PLK4 was under 100 nM each time.

Regarding `COc1ccc2c(c1)[C@]1(C[C@H]1c1ccc3c(/C=C/c4ccc(CN5CCOCC5)c(F)c4)n[nH]c3c1)C(=O)N2` [Example A199, (1R,2S)-(E)-2-(3-(3-fluoro-4-(morpholinomethyl)styryl)-1H-indazol-6-yl)-5′-methoxyspiro[cyclopropane-1,3′-indolin]-2′-one 2,2,2-trifluoroacetate], the IC50 on Aurora B and on human PLK4 was under 100 nM each time.

Regarding `O=C1Nc2ccccc2[C@]12C[C@H]2c1ccc2c(/C=C/c3ccc(CN4CCOCC4)c(F)c3)n[nH]c2c1` [Example A200, (1R,2S)-(E)-2-(3-(3-fluoro-4-(morpholinomethyl)styryl)-1H-indazol-6-yl)spiro[cyclopropane-1,3′-indolin]-2′-one 2,2,2-trifluoroacetate], the half-inhibitory concentration (IC50) at Aurora B and at human PLK4 was under 100 nM in each case.

Consider `C[C@@H]1CCC[C@H](C)N1Cc1ccc(/C=C/c2n[nH]c3cc([C@@H]4C[C@@]45C(=O)Nc4ccccc45)ccc23)cc1` [Example A201, (1R,2S)-(E)-2-(3-(4-((cis-2,6-dimethylpiperidin-1-yl)methyl)styryl)-1H-indazol-6-yl)spiro[cyclopropane-1,3′-indolin]-2′-one 2,2,2-trifluoroacetate], for which the IC50 on Aurora B and on human PLK4 was under 100 nM in each case.

In the case of `O=C1Nc2ccccc2[C@]12C[C@H]2c1ccc2c(/C=C/c3csc(CN4CCOCC4)c3)n[nH]c2c1` [Example A202, (1R,2S)-2-(3-((E)-2-(5-(morpholinomethyl)thiophen-3-yl)vinyl)-1H-indazol-6-yl)spiro[cyclopropane-1,3′-indolin]-2′-one 2,2,2-trifluoroacetate], the IC50 at Aurora B and at human PLK4 was under 100 nM each time.

`COc1ccc2c(c1)[C@]1(C[C@H]1c1ccc3c(/C=C/c4ccc(CN5[C@H](C)CCC[C@@H]5C)cc4)n[nH]c3c1)C(=O)N2` [Example A203, (1R,2S)-(E)-2-(3-(4-((cis-2,6-dimethylpiperidin-1-yl)methyl)styryl)-1H-indazol-6-yl)-5′-methoxyspiro[cyclopropane-1,3′-indolin]-2′-one 2,2,2-trifluoroacetate]: the IC50 on Aurora B and on human PLK4 was under 100 nM throughout.

In the case of `O=C1Nc2ccccc2[C@]12C[C@H]2c1ccc2c(/C=C/c3ccc(OCCN4CCOCC4)cc3)n[nH]c2c1` [Example A204, (1R,2S)-(E)-2-(3-(4-(2-morpholinoethoxy)styryl)-1H-indazol-6-yl)spiro[cyclopropane-1,3′-indolin]-2′-one 2,2,2-trifluoroacetate], the IC50 on Aurora B and at human PLK4 was under 100 nM throughout.

Consider `O=C1Nc2ccccc2[C@]12C[C@H]2c1ccc2c(/C=C/c3ccc(CCN4CCOCC4)cc3)n[nH]c2c1` [Example A205, (1R,2S)-(E)-2-(3-(4-(2-morpholinoethyl)styryl)-1H-indazol-6-yl)spiro[cyclopropane-1,3′-indolin]-2′-one 2,2,2-trifluoroacetate], for which the IC50 on Aurora B and on human PLK4 was under 100 nM throughout.

Take `CCN(CC)Cc1ccc(/C=C/c2n[nH]c3cc([C@@H]4C[C@@]45C(=O)Nc4ccc(OC)cc45)ccc23)cc1` [Example A206, (1R,2S)-(E)-2-(3-(4-((diethylamino)methyl)styryl)-1H-indazol-6-yl)-5′-methoxy spiro[cyclopropane-1,3′-indolin]-2′-one 2,2,2-trifluoroacetate]: the IC50 on Aurora B and on human PLK4 was under 100 nM each time.

As for `COc1ccc2c(c1)[C@]1(C[C@H]1c1ccc3c(/C=C/c4cc(F)c(CN(C)C)c(F)c4)n[nH]c3c1)C(=O)N2` [Example A216, (1R,2S)-(E)-2-(3-(4-((dimethylamino)methyl)-3,5-difluorostyryl)-1H-indazol-6-yl)-5′-methoxyspiro[cyclopropane-1,3′-indolin]-2′-one 2,2,2-trifluoroacetate], the IC50 on Aurora B and on human PLK4 was under 100 nM each time.

As to `CCN(CC)Cc1c(F)cc(/C=C/c2n[nH]c3cc([C@@H]4C[C@@]45C(=O)Nc4ccccc45)ccc23)cc1F` [Example A221, (1R,2S)-(E)-2-(3-(4-((diethylamino)methyl)-3,5-difluorostyryl)-1H-indazol-6-yl)spiro[cyclopropane-1,3′-indolin]-2′-one 2,2,2-trifluoroacetate], the IC50 at Aurora B and on human PLK4 was under 100 nM in each case.
